Patent US20240399360A1, “DEVICES AND METHODS FOR CREATING TRANSCELLULAR PORES” (Georgia Tech Research Corporation, priority 2023, published 2024)
“Also recorded” adds a separate entry of the source.

Key:
Assay type in all cases: cell-based, human
phSC cells [1] = assay: Cell stiffness measurement by atomic force microscopy (AFM)
Method: Cell stiffness measurement: SC cells were seeded on coverslips and grown to confluence. An MFD-3D AFM (Asylum Research, Santa Barbara, CA, USA) was used to make stiffness measurements using silicon nitride cantilevers with an attached borosilicate sphere (diameter=10 μm; nominal spring constant=0.1 N/m; Novascan Technologies, Inc., Ames, IA, USA). […] The indentation depth was limited to 400 nm to avoid substrate effects and the tip velocity was adjusted to 800 nm/s to avoid viscous effects^37. 5 measurements/cell were conducted, and at least 5 cells were measured/cell strain. Data from AFM measurements were fitted to the Hertz model to calculate the Young's Modulus of the cells.

phSC cells [2] = assay: Particle-induced transcellular pore formation, fluorescent pore-label assay, cells seeded above microparticles
Method: Substrate preparation and cell culture for transcellular pore formation using microparticles: Round cover glasses (12 mm in diameter) were employed for SEM imaging, while 16-well chambered cover glasses (16 wells per cover glass; Invitrogen C37000) were utilized for other experiments. Glass substrates underwent plasma treatment (Harrick Plasma, PDC-32G) for 2 minutes at high RF power and were immediately incubated at 37° C. with 0.5 mg/mL biotinylated gelatin for 24 hours. After three washes with PBS, the cover glasses were incubated with microbial transglutaminase (0.001 unit/mL in 20 mM Tris-HCl and 150 mM NaCl, pH 8; Sigma-Aldrich SAE0159) at 37° C. for 24 hours to crosslink the gelatin coating and enhance phSC cell attachment on the substrate. Following three additional washes with PBS, the cover glasses were UV sterilized in a biosafety cabinet for 1 hour. Carboxyl ferromagnetic particles (4.0-4.9 μm, Spherotech, Inc. CFM-40-10) were vortexed and added to the substrate. The particles were allowed to randomly sink onto the substrate to achieve an approximate density of 1 particle per 1000 μm^2. Non-adherent particles were removed by washing three times with PBS, followed by seeding phSC cells (passage 4-6; 7.5 k cells/cm^2). The cells were then cultured for 2 to 7 hours in DMEM supplemented with 1% FBS and 1×PSG at 37° C. with 5% CO2. The culture time was chosen as the minimum duration necessary for the cells to adopt a spread configuration similar to that observed in situ. Note that this culture time (2 to 7 hours) varied for the tested cell strains. Alternatively, in some experiments, apical-to-basal cell stretching was achieved by adding particles above fully spread cells. High-content screening of transcellular pores: Upon achieving full cell spreading over particles, cells were incubated with the first pore label for 5 minutes, followed by three washes with cell media. Subsequently, cells were either exposed to a magnetic field (as detailed below) or incubated solely with cell media for 10 minutes. Afterward, the cells were incubated with the second pore label (5 μg/mL; Streptavidin, Alexa Fluor 647 Conjugate, Invitrogen S32357) for 5 minutes, all at 37° C. The cells were then immediately washed three times with PBS, fixed with 4% formaldehyde for 15 minutes at room temperature, washed three times with PBS, permeabilized with 0.1% Triton X for 15 minutes, and stained with NucBlue Fixed Cell Ready Probes Reagent (6 drops/mL; Invitrogen R37606) and Alexa Fluor 555 Phalloidin (0.165 μM; Invitrogen R34055) for 1 hour at room temperature. Following these steps, cells were washed three times with PBS, the cover glass was detached from the rest of the 16-well chambered system, mounted on another cover glass using Prolong Gold Antifade Mountant (Invitrogen P10144), and stored in the dark until examination with a Leica DM6 B upright microscope system. Fluorescent and brightfield images were acquired using a 10× objective to generate tile scans for each well. To exclude cells near the well edges, a 4 mm diameter circle was delineated at the center of each image, and the analysis was restricted to the cells within this 4 mm circle. The number of cells, particles beneath cells, and pores were manually counted. Pores incidence rate was quantified as the number of pores associated with particles divided by the number of particles, multiplied by 100. […]

phSC cells [3] = assay: Cell area after treatment (fluorescent images of actin network and nuclei); details: Y-27632 treatments; nSC74, nSC75, nSC82, nSC89; 2-way ANOVA; FIGS. 12A-12B
Method: Treatment with Y-27632 ROCK inhibitor: Cells were seeded above microparticles in 16-well chambered slides in DMEM supplemented with 10% FBS, 1×PSG and allowed to spread for 3.5 hours at 37° C. with 5% CO2. Subsequently, the cells were incubated with 10 μM Y-27632 (Sigma, Y0503) in DMEM supplemented with 1% FBS, 1×PSG for 30 minutes, followed by the first pore label for 5 minutes. Following incubation, the cells were washed, fixed, stained for nuclei and actin filaments, and imaged as described in the section titled “High-content screening of transcellular pores.”

phSC cells [4] = assay: Transcellular pore detection with particles placed on top of cells (apical-to-basal deformation); details: 10 μM, instead of magnetic field, FIGS. 14A-14B
Method: Substrate preparation and cell culture for transcellular pore formation using microparticles: Round cover glasses (12 mm in diameter) were employed for SEM imaging, while 16-well chambered cover glasses (16 wells per cover glass; Invitrogen C37000) were utilized for other experiments. Glass substrates underwent plasma treatment (Harrick Plasma, PDC-32G) for 2 minutes at high RF power and were immediately incubated at 37° C. with 0.5 mg/mL biotinylated gelatin for 24 hours. After three washes with PBS, the cover glasses were incubated with microbial transglutaminase (0.001 unit/mL in 20 mM Tris-HCl and 150 mM NaCl, pH 8; Sigma-Aldrich SAE0159) at 37° C. for 24 hours to crosslink the gelatin coating and enhance phSC cell attachment on the substrate. […]
High-content screening of transcellular pores: Upon achieving full cell spreading over particles, cells were incubated with the first pore label for 5 minutes, followed by three washes with cell media. […] The cells were then immediately washed three times with PBS, fixed with 4% formaldehyde for 15 minutes at room temperature, washed three times with PBS, permeabilized with 0.1% Triton X for 15 minutes, and stained with NucBlue Fixed Cell Ready Probes Reagent (6 drops/mL; Invitrogen R37606) and Alexa Fluor 555 Phalloidin (0.165 μM; Invitrogen R34055) for 1 hour at room temperature. […]

[5] = primary human SC cells, summary statement without cell strain

| SMILES | cell stiffness (phSC cells [1]; SIP treatment, nSC74, FIG. 13A) | cell stiffness (phSC cells [1]; SIP treatment, nSC75 and nSC89, FIG. 13A) | pore formation (phSC cells [2]; SIP treatment, nSC74, FIG. 13B) | pore formation (phSC cells [2]; SIP treatment, nSC75 and nSC89, FIG. 13B) | pore formation (phSC cells [2]; [5]) | cell stiffness (phSC cells [1]; Y-27632 treatment, four normal cell strains nSC74, nSC75, nSC82, nSC89, FIG. 6C) | particle-induced pore formation (phSC cells [2]; Y-27632 treatment, four normal cell strains nSC74, nSC75, nSC82, nSC89, FIG. 6D) | cell area (phSC cells [3]) | transcellular pores at particle locations (phSC cells [4]) |
| --- | --- | --- | --- | --- | --- | --- | --- | --- | --- |
| CCCCCCCCCCCCC/C=C/[C@@H](O)[C@@H](N)COP(=O)(O)O [SIP, sphingosine-1-phosphate] | did not have a significant effect; also recorded: did not affect | increased cell stiffness; also recorded: significant increase | did not have a significant effect; also recorded: did not affect | decreased pore formation; also recorded: decrease | decreased pore formation |  |  |  |  |
| C[C@@H](N)[C@H]1CC[C@H](C(=O)Nc2ccncc2)CC1 [Y-27632] |  |  |  |  | increased pore formation | decreased cell stiffness | increased pore formation in a dose-dependent manner | did not significantly affect; also recorded: no significant effect | did not induce transcellular pores; also recorded: failed to induce transcellular pores |
